These results are taken from patent US20190192456A1, “USE OF CELIPROLOL FOR TREATING VASCULAR EHLERS-DANLOS SYNDROME IN WOMEN DURING PREGNANCY AND PERIPARTUM PERIOD” (Assistance Publique-Hôpitaux de Paris (AP-HP), priority 2017, published 2019).

Common to all, as to type: in vivo, human
Data set [1] concerns newborn of mothers who received celiprolol during pregnancy and delivery. Briefly: Newborn well-being after indirect exposure to celiprolol during pregnancy. The note with it: n=7 newborn of mothers who received celiprolol during pregnancy and delivery. How it is done:
For each newborn, weight and height at birth were recorded and presented as a function of term of pregnancy, as previously described. Health status at birth was assessed by the APGAR score noted in the children's health record, and any significant event that occurred at birth was collected (respiratory failure, pneumothorax, significant verifiable birth defects).
Reference charts for birth weight and size were constructed according to Battaglia et al. with normal values based on approximately 57 000 newborn of the Paris (France) area as reported by Salomon et al.[15].

The subject of data set [2] is parturients with molecularly confirmed vascular Ehlers-Danlos syndrome. Nature of the data set: Maternal morbidity study (obstetrical interview study) of vascular EDS parturients; prescription of celiprolol during pregnancy, delivery and post-partum period. The method, then:
For each pregnancy, date and time of delivery were recorded, as well as term of pregnancy at birth, expressed in weeks of amenorrhea (WA). In case of preterm labour or premature rupture of membranes (PROM), gestational age of occurrence was noted. Ongoing treatments during pregnancy were recorded, especially betablockers (celiprolol). In case of anaesthesia, type of ([…], general) and complications were collected (haematoma, leakage of spinal fluid, pneumothorax for general anaesthesia). Delivery was described as follows: type (vaginal, c-section), duration of labour for vaginal delivery and the use of forceps or episiotomy. Vascular complications were defined by the occurrence of arterial dissections and ruptures during pregnancy, delivery and during the post-partum period defined as 42 days after delivery. Haemorrhagic complications were defined by, either significant bleeding when reported as such by patients and/or medical records, either by bleeding requiring blood transfusion or post-partum haemorrhage. Bleeding events >1000 ml with hemodynamic collapse are reported as haemorrhagic shock. Perineal damage was defined by the occurrence of a perineal tear related or not with episiotomy. Perineal injury was graded according to Sultan et al., from grade I (limited defect of perineal skin), to grade IV (injury of the perineum involving the anal sphincter complex and epithelium) perineal tears.
After the first interview, all relevant obstetrical data, especially term of pregnancies and obstetrical complications (preterm labour, PROM, uterine rupture, haemorrhage) were independently checked for accuracy of diagnosis and staging by a senior obstetrician during a second interview, and hospital records of deliveries were checked, when available.
Programmed Early C-Section and Prescription of Celiprolol
In n=12 (20%) pregnancies of this cohort, diagnosis of maternal vascular EDS (n=11, 28%) was suspected (n=2) or genetically confirmed (n=9) at the time of delivery, with consequent obstetrical management (prescription of celiprolol 200 mg BID in n=7 patients covering 7/12 pregnancies; preterm c-section in n=11/12 deliveries, of which 9 were scheduled).

Data set [3] has as its system parturients with vascular Ehlers-Danlos syndrome. Briefly: Maternal mortality analysis of vascular EDS families. The note with it: one patient, 7 months after delivery; programmed early c-section, unremarkable arterial monitoring after the postpartum period. An excerpt:
For the mortality analysis, the medical charts and pedigrees of all patients known to the French referral center for rare vascular diseases (AP-HP, Centre de Référence des Maladies Vasculaires Rares, Hôpital Européen Georges Pompidou, Paris, France) for having a molecularly confirmed vascular EDS, were screened for past or ongoing pregnancies, and for maternal deaths in probands and pedigrees. All families known to our center with at least one proband diagnosed with vascular EDS (nationwide patient cohort) were considered for participation to the maternal mortality analysis after exclusion of ascendants of patients with neomutations (see below). Patients with a personal history of pregnancy were considered for participation to the obstetrical interview study. […]
Maternal deaths were determined according to definitions of the 10th revision of the International Classification of Diseases of the World Health Organization (Geneva 2004). Pregnancy-related deaths defined as the death of a woman while pregnant or within 42 days of termination of pregnancy, irrespective of the cause of death, were determined for probands, first and second degree ascendants. […] A global maternal mortality ratio was then determined, which encompassed pregnancy-related and late maternal mortality ratios. […]

[4] abbreviates: patients treated with celiprolol 200 mg BID, n=7.

In the case of `CCN(CC)C(=O)Nc1ccc(OCC(O)CNC(C)(C)C)c(C(C)=O)c1` (centres unmarked) [celiprolol, N′-(3-Acetyl-4-(3-((1,1-dimethylethyl)amino)-2-hydroxypropoxy)phenyl)-N,N-diethylurea], in data set [1], the neonatal hypoglycaemia result was “none of the n=7 newborn” and the “other indications of adverse effects of indirect exposure to celiprolol during pregnancy” value is “nor had other indications of adverse effects”. Further, the “tolerability of celiprolol throughout pregnancy and the post-partum period” value in data set [2] (celiprolol 200 mg BID in n=7 patients covering 7/12 pregnancies) is recorded as “well tolerated”. The “dose adjustment in comparison to the dosage prescribed prior to the beginning of each pregnancy” value in data set [2] (celiprolol 200 mg BID, n=7 patients, throughout pregnancy and the post-partum period) was “no dose adjustment was necessary in any patient”. In data set [2] (setting [4]), the “arterial event (dissection, rupture)” value was “No arterial event (dissection, rupture)”; the “maternal survival of pregnancies and post-partum periods” value is listed as “all patients treated with celiprolol survived”; the uterine rupture result was “nor uterine rupture occurred in any patient”. In addition, the “late maternal death by spontaneous intra-abdominal arterial rupture” value in data set [3] is on record as “occurred spontaneously despite a programmed early c-section, medication by celiprolol”.
